Target: Human TASK-1 channels (Homo sapiens (Human), UniProt O14649)
Assay: Determination of the activity on the TASK-1 channel in Xenopus oocytes (two-microelectrode voltage clamp)
Type: cell-based
Details: for IC50: human TASK-1 expressed in Xenopus oocytes, room temperature, read-out: IC50 value for TASK-1 inhibition; for inhibition at 5 µM: compound concentration 5 μM
In short: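 Xenopus oocytes were injected with human TASK-1 cRNA and recorded two days later by two-microelectrode voltage clamp, holding at −90 mV with 500 ms steps to 40 mV. Superfusion used ND96, pH 7.4, at room temperature, with rising compound concentrations; percentage inhibition of control current was fitted to a dose-response curve for IC50.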

Sequence of Human TASK-1 channels (O14649 whole entry): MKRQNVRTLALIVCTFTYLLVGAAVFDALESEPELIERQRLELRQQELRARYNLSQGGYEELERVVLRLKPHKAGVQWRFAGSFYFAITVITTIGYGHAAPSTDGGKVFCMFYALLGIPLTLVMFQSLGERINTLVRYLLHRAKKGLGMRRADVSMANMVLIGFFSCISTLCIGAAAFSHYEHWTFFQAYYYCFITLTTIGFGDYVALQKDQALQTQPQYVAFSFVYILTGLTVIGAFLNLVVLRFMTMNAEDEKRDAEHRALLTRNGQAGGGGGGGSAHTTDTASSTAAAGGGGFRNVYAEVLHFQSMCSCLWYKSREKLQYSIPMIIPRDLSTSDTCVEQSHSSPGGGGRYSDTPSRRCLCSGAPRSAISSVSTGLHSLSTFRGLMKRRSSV

Row | Structure (SMILES) | IC50 | inhibition at 5 µM
1 | CC[C@@H](NC(=O)c1cc(C(=O)NC(C)c2cnccn2)c2n1CCOC2)c1ccc(F)cc1F (single isomer, unassigned) [16pk] | 190 nM | 
2 | CC[C@@H](NC(=O)c1cc(C(=O)N2CCC[C@@H]2C)n2c1COCC2)c1ccc(SC(F)(F)F)cc1 [16ax, 6-((S)-2-Methyl-pyrrolidine-1-carbonyl)-3,4-dihydro-1H-pyrrolo[2,1-c][1,4]oxazine-8-carboxylic acid [(R)-1-(4-trifluoromethylsulfanyl-phenyl)-propyl]-amide] | 350 nM | 
3 | CC[C@H](NC(=O)c1cc(C(=O)N[C@H](C)c2ccc(F)cc2)n2c1COCC2)c1ncc(C(F)(F)F)cn1 [16ee, 3,4-Dihydro-1H-pyrrolo[2,1-c][1,4]oxazine-6,8-dicarboxylic acid 6-{[(R)-1-(4-fluoro-phenyl)-ethyl]-amide} 8-{[(S)-1-(5-trifluoromethyl-pyrimidin-2-yl)-propyl]-amide}] | 350 nM | 
4 | CC[C@@H](NC(=O)c1cc(C(=O)N2CCC[C@@H]2C)n2c1COCC2)c1cnc(C(F)(F)F)nc1 [16bt, 6-((S)-2-Methyl-pyrrolidine-1-carbonyl)-3,4-dihydro-1H-pyrrolo[2,1-c][1,4]oxazine-8-carboxylic acid [(R)-1-(2-trifluoromethyl-pyrimidin-5-yl)-propyl]-amide] |  | 47%
5 | CC[C@@H](NC(=O)c1cc(C(=O)N2CCC[C@@H]2C)n2c1COCC2)c1cccc(C#N)n1 [16ah, 6-((S)-2-Methyl-pyrrolidine-1-carbonyl)-3,4-dihydro-1H-pyrrolo[2,1-c][1,4]oxazine-8-carboxylic acid [(R)-1-(6-cyano-pyridin-2-yl)-propyl]-amide] | 3200 nM | 
6 | CC[C@@H](NC(=O)c1cc(C(=O)N2CCC(c3ccccc3)C2)n2c1CCCC2)c1ccccc1 (stereo partly drawn) [16ms, 3-(3-Phenyl-pyrrolidine-1-carbonyl)-5,6,7,8-tetrahydro-indolizine-1-carboxylic acid ((R)-1-phenyl-propyl)-amide] | 550 nM | 
7 | CC[C@@H](NC(=O)c1cc(C(=O)N2CCC[C@@H]2C)n2c1COCC2)c1c(F)cccc1F [16t, 6-((S)-2-Methyl-pyrrolidine-1-carbonyl)-3,4-dihydro-1H-pyrrolo[2,1-c][1,4]oxazine-8-carboxylic acid [(R)-1-(2,6-difluoro-phenyl)-propyl]-amide] | 44 nM | 
8 | CC(C)[C@@H](NC(=O)c1cc(C(=O)N2CCCC2)c2n1CCOC2)c1ccc(F)cc1 [16lm, 8-(Pyrrolidine-1-carbonyl)-3,4-dihydro-1H-pyrrolo[2,1-c][1,4]oxazine-6-carboxylic acid [(R)-1-(4-fluoro-phenyl)-2-methyl-propyl]-amide] | 270 nM | 
9 | CC[C@@H](NC(=O)c1c(C)c(C(=O)N2CCC[C@@H]2C)n2c1COCC2)c1ccc(C(F)(F)F)nc1 [16rx, 7-Methyl-6-((S)-2-methyl-pyrrolidine-1-carbonyl)-3,4-dihydro-1H-pyrrolo[2,1-c][1,4]oxazine-8-carboxylic acid [(R)-1-(6-trifluoromethyl-pyridin-3-yl)-propyl]-amide] | 4700 nM | 
10 | CC[C@@H](NC(=O)c1cc(C(=O)N2CC[C@H](F)C2)n2c1CCCC2)c1ccccc1 [16mk, 3-((S)-3-Fluoro-pyrrolidine-1-carbonyl)-5,6,7,8-tetrahydro-indolizine-1-carboxylic acid ((R)-1-phenyl-propyl)-amide] | 550 nM | 
11 | C[C@@H](NC(=O)c1cc(C(=O)NCC(F)(F)F)c2n1CCOC2)c1ccc(F)cc1 [16dr, 3,4-Dihydro-1H-pyrrolo[2,1-c][1,4]oxazine-6,8-dicarboxylic acid 6-{[(R)-1-(4-fluoro-phenyl)-ethyl]-amide} 8-[(2,2,2-trifluoro-ethyl)-amide]] |  | 84%
12 | C[C@@H](NC(=O)c1cc(C(=O)N[C@H](C)c2ccc(F)cc2)n2c1COCC2)c1ccc(F)cc1 [16dm, 3,4-Dihydro-1H-pyrrolo[2,1-c][1,4]oxazine-6,8-dicarboxylic acid bis-{[(R)-1-(4-fluoro-phenyl)-ethyl]-amide}] | 125 nM | 
13 | CC[C@@H](NC(=O)c1cc(C(=O)N2CCC[C@@H]2C)n2c1COCC2)c1ccc(F)cc1Cl [16u, 6-((S)-2-Methyl-pyrrolidine-1-carbonyl)-3,4-dihydro-1H-pyrrolo[2,1-c][1,4]oxazine-8-carboxylic acid [(R)-1-(2-chloro-4-fluoro-phenyl)-propyl]-amide] | 49 nM | 
14 | CCC(NC(=O)c1cc(C(=O)N2CCCC2)n2c1COCC2)c1ccccc1OC(F)F (stereo not shown) [16cz, 6-(Pyrrolidine-1-carbonyl)-3,4-dihydro-1H-pyrrolo[2,1-c][1,4]oxazine-8-carboxylic acid [1-(2-difluoromethoxy-phenyl)-propyl]-amide] | 310 nM | 
15 | CC[C@@H](NC(=O)c1cc(C(=O)NCC2CCCC2)n2c1CCCC2)c1ccccc1 [16my, 5,6,7,8-Tetrahydro-indolizine-1,3-dicarboxylic acid 3-cyclopentylmethyl-amide 1-[((R)-1-phenyl-propyl)-amide]] | 120 nM | 
16 | CC[C@@H](NC(=O)c1cc(C(=O)N2CCC[C@@H]2C)n2c1COCC2)c1cnc(OC)c(C(F)(F)F)c1 [16cn, 6-((S)-2-Methyl-pyrrolidine-1-carbonyl)-3,4-dihydro-1H-pyrrolo[2,1-c][1,4]oxazine-8-carboxylic acid [(R)-1-(6-methoxy-5-trifluoromethyl-pyridin-3-yl)-propyl]-amide] | 100 nM | 

More lines, now with the values ahead:

Row | IC50 | inhibition at 5 µM | Structure (SMILES)
17 | 600 nM |  | CC[C@@H](NC(=O)c1cc(C(=O)N[C@H](C)c2ccc(F)cc2)n2c1COCC2)c1ccc(C#N)cc1 [16ec, 3,4-Dihydro-1H-pyrrolo[2,1][1,4]oxazine-6,8-dicarboxylic acid 8-{[(R)-1-(4-cyano-phenyl)-propyl]-amide} 6-{[(R)-1-(4-fluoro-phenyl)-ethyl]-amide}]
18 | 820 nM |  | CC[C@@H](NC(=O)c1cc(C(=O)N2[C@@H](COC)CC[C@@H]2COC)n2c1COCC2)c1ccccc1 [16ep, 6-((2R,5R)-2,5-Bis-methoxymethyl-pyrrolidine-1-carbonyl)-3,4-dihydro-1H-pyrrolo[2,1-c][1,4]oxazine-8-carboxylic acid ((R)-1-phenyl-propyl)-amide]
19 | 1300 nM |  | CC[C@@H](NC(=O)c1cc(C(=O)N2CCC[C@@H]2C(O)C2CC2)n2c1COCC2)c1ccccc1 (stereo partly drawn) [16et, 6-[(R)-2-(Cyclopropyl-hydroxy-methyl)-pyrrolidine-1-carbonyl]-3,4-dihydro-1H-pyrrolo[2,1-c][1,4]oxazine-8-carboxylic acid ((R)-1-phenyl-propyl)-amide]
20 | 3200 nM |  | CC[C@@H](NC(=O)c1cc(C(=O)NCc2c(C)noc2C)c2n1CCOC2)c1ccccc1 [16jl, 3,4-Dihydro-1H-pyrrolo[2,1-c][1,4]oxazine-6,8-dicarboxylic acid 8-[(3,5-dimethyl-isoxazol-4-ylmethyl)-amide] 6-[((R)-1-phenyl-propyl)-amide]]
21 | 3600 nM |  | CC[C@@H](NC(=O)c1cc(C(=O)N2CCN(CCC(F)(F)F)C[C@@H]2C)n2c1COCC2)c1ccccc1 [16ft, 6-[(S)-2-Methyl-4-(3,3,3-trifluoro-propyl)-piperazine-1-carbonyl]-3,4-dihydro-1H-pyrrolo[2,1-c][1,4]oxazine-8-carboxylic acid ((R)-1-phenyl-propyl)-amide]
22 | 190 nM |  | CC[C@@H](NC(=O)c1cc(C(=O)N[C@H](CC)c2ccc(F)cc2)n2c1C(C)OCC2)c1ccccc1 (stereo partly shown) [16lh]
23 |  | 70% | CC[C@H](NC(=O)c1cc(C(=O)N[C@H](C)c2ncccn2)c2n1CCOC2)c1ccccc1 [16kg, 3,4-Dihydro-1H-pyrrolo[2,1-c][1,4]oxazine-6,8-dicarboxylic acid 6-[((S)-1-phenyl-propyl)-amide] 8-[((R)-1-pyrimidin-2-yl-ethyl)-amide]]
24 | 150 nM |  | CC[C@@H](NC(=O)c1cc(C(=O)N2CC3CC3C2)n2c1COCC2)c1ccccc1 (stereo partly drawn) [16fe, 6-(3-Aza-bicyclo[3.1.0]hexane-3-carbonyl)-3,4-dihydro-1H-pyrrolo[2,1-c][1,4]oxazine-8-carboxylic acid ((R)-1-phenyl-propyl)-amide]
25 | 5400 nM |  | CC[C@@H](NC(=O)c1cc(C(=O)N(C)CC2CCOCC2)n2c1COCC2)c1ccccc1 [16gd, 3,4-Dihydro-1H-pyrrolo[2,1-c][1,4]oxazine-6,8-dicarboxylic acid 6-[methyl-(tetrahydro-pyran-4-ylmethyl)-amide] 8-[((R)-1-phenyl-propyl)-amide]]
26 | 250 nM |  | CC[C@@H](NC(=O)c1cc(C(=O)N(CC)CC)n2c1COCC2)c1ccccc1 [16gn, 3,4-Dihydro-1H-pyrrolo[2,1-c][1,4]oxazine-6,8-dicarboxylic acid 6-diethylamide 8-[((R)-1-phenyl-propyl)-amide]]
27 | 120 nM |  | CC[C@@H](NC(=O)c1cc(C(=O)N[C@H](CC)c2ncccc2OC)n2c1COCC2)c1ccccc1 [16ia, 3,4-Dihydro-1H-pyrrolo[2,1-c][1,4]oxazine-6,8-dicarboxylic acid 6-{[(R)-1-(3-methoxy-pyridin-2-yl)-propyl]-amide} 8-[((R)-1-phenyl-propyl)-amide]]
28 | 130 nM |  | CC[C@@H](NC(=O)c1cc(C(=O)N[C@@H](C)C(=O)OC(C)C)n2c1COCC2)c1ccccc1 [16it, (S)-2-{[8-((R)-1-Phenyl-propylcarbamoyl)-3,4-dihydro-1H-pyrrolo[2,1-c][1,4]oxazine-6-carbonyl]-amino}-propionic acid isopropyl ester]
29 | 620 nM |  | CCC(NC(=O)c1cc(C(=O)N[C@H](CC)c2ccccc2)c2n1CCOC2)c1cnc(OC)nc1 (single isomer, unassigned) [16hu]
30 | 650 nM |  | CC[C@@H](NC(=O)c1cc(C(=O)NCc2ncn[nH]2)n2c1COCC2)c1ccccc1 [16ii, 3,4-Dihydro-1H-pyrrolo[2,1-c][1,4]oxazine-6,8-dicarboxylic acid 8-[((R)-1-phenyl-propyl)-amide] 6-[(2H-[1,2,4]triazol-3-ylmethyl)-amide]]
31 | 40 nM |  | CC[C@@H](NC(=O)c1cc(C(=O)N[C@H](CC)c2cccc(OC)n2)n2c1COCC2)c1ccccc1 [16ic, 3,4-dihydro-1H-pyrrolo[2,1-c][1,4]oxazine-6,8-dicarboxylic acid 6-{[(R)-1-(6-methoxy-pyridin-2-yl)-propyl]-amide} 8-[((R)-1-phenyl-propyl)-amide]]
